Test results as given in patent US20100099698A1, “Compositions for Improving Skin Conditions Comprising Matrine or Its Oxidized Derivatives” (Biospectrum Inc., priority 2007, published 2010).

Legend:
Human fibroblasts = assay: Cytotoxicity to fibroblasts (MIT reagent, absorbance 540 nm); assay type: cell-based; details: 1 μM, 10 μM and 50 μM; compared to RA (retinoic acid); FIG. 1
Experimental: Human fibroblasts (commercially available from pacific) were seeded into a 6-well plate (2×10^5 cells/well) and the well plate was incubated in a 5% CO2 incubator for 24 hr at 37° C. After 24 hr, the medium in each well was removed and samples were treated with various concentrations, followed by incubating again for 24 hr. Following incubation, the cell medium was collected and was used as samples. To measure cytotoxicity of samples to fibroblasts, MIT reagent (1 mg/ml) was added to each well in 1/10 fold volume of the remaining medium, incubated for 3 hr and the medium was eliminated. The medium was dissolved in DMSO and its absorbance at 540 nm was measured.

B16 mouse melanoma cells = assay: Cytotoxicity at the test concentrations in B16 melanoma cells; assay type: cell-based; details: 10 μM, 100 μM and 500 μM
Interleukin-2 promoter = assay: Interleukin-2 luciferase reporter activity in PHA-activated Jurkat cells; assay type: cell-based, Human; details: PHA alone = 100
Experimental: Interleukin-2 promoter was reported to play an important role in the generation of cytokine related to inflammatory. The activity of interleukin-2 luciferase was measured using the following method: […] Following 24 hr, the cell was collected and the luciferase activity was measured using luminometer (Berthold Technologies GmbH&Co.KG, Germany).

| Structure (SMILES) | cytotoxicity against human fibroblasts compared to RA (Human fibroblasts) | cytotoxicity (B16 mouse melanoma cells) | IL-2 luciferase activities (Interleukin-2 promoter; 10 uM with PHA (100 ng/ml)) | IL-2 luciferase activities (Interleukin-2 promoter; 100 uM with PHA (100 ng/ml)) | IL-2 luciferase activities (Interleukin-2 promoter; 500 uM with PHA (100 ng/ml)) |
| --- | --- | --- | --- | --- | --- |
| O=C1CCC[C@@H]2[C@H]3CCCN4CCC[C@@H](CN12)[C@@H]34 [Matrine, matrine] | lower cytotoxicity | did not show cytotoxicity | 92 | 77 | 68 |
| O=C1CCC[C@@H]2[C@H]3CCC[N+]4([O-])CCC[C@@H](CN12)[C@@H]34 (some centres unmarked) [Oxymatrine, oxymatrine] | – | – | 95 | 78 | 62 |
